This assay deals with bFGF-induced angiogenesis. In words: rat cornea micropocket method (angiogenesis inhibitory activity). In kind it is in vivo, Sprague-Dawley rats. The settings on record: rats with angiogenesis inhibitory activity / rats tested, sample pellet 20 »g. Here is the method: The product compound (I) obtained in the examples given below were evaluated for angiogenesis inhibitory activity by the rat cornea micropocket method.
Essentially the method of Gimbrone et al. [J. National Cancer Institute, 52, 413-419 (1974)] was followed. Thus, adult male Sprague-Dawley rats (11 to 16 weeks of age) were anesthetized with nembutal and locally anesthetized by instillation of xylocaine eyedrops onto the eyeball. The cornea was incised to a length of about 2 mm at about 2mm inside from the corneal circumference by means of an injection needle, and a sustained release pellet containing basic fibroblast growth factor (bFGF; bovine brain-derived, purified product; R & D) and a sustained release pellet containing the test sample were inserted side by side into the incision so that the bFGF pellet was located on the central side in the cornea. In the control group, the bFGF pellet and a sample-free pellet were inserted into the cornea. After 7 days and after 10 days, the cornea was observed under a stereoscopic microscope.
The sustained release pellets were prepared in the following manner. An ethylene-vinyl acetate copolymer (Takeda Chemical Industries) was dissolved in dichloromethane to a concentration of 8%. A 3-»l portion of the solution was air-dried on a glass dish, an aqueous solution of bFGF (250 ng) was then placed thereon and air-dried and, finally 3 »l of the above ethylene-vinyl acetate copolymer solution was placed further thereon and air-dried to give a laminate consisting of two copolymer layers and a bFGF layer sandwiched therebetween. This sandwich sheet was made round into a bFGF pellet. The test sample pellets were prepared by dissolving each sample in ethanol in a concentration of 20 »g/2 »l, mixing the solution (2 »l) with 6 »l of an ethylene-vinyl acetate copolymer solution, air-drying the mixed solution on a glass dish and making the thus-obtained sheet round.

The structures appear in SMILES notation. Where a name gives a salt, the structure may show the parent alone. Marks after values point to notes of the source that are not given here.

Consider `CO[C@@H]1[C@H](OC(=O)NS(=O)(=O)c2ccc(C)cc2)CC[C@]2(CO2)[C@H]1[C@@]1(C)O[C@@H]1CC=C(C)C` [Example 38, O-(p-Toluenesulfonylcarbamoyl)fumagillol], for which the Inhibition rate (judged after 10 days) is listed as 13/15.

`CO[C@@H]1[C@H](OCc2ccccc2)CC[C@]2(CO2)[C@H]1[C@@]1(C)O[C@@H]1CC=C(C)C` [Example 17, O-Benzylfumagillol]: under “judged after 7 days”, the Inhibition rate is on record as 7/8*.

As for `CO[C@@H]1[C@H](OC(=O)Nc2ccc(Cl)cc2)CC[C@]2(CO2)[C@H]1[C@@]1(C)O[C@@H]1CC=C(C)C` [Example 35, O-(p-Chlorophenylcarbamoyl)fumagillol], the Inhibition rate (judged after 10 days) is reported as 4/8.

On to `COC1C(OC(=O)NC(=O)CSc2cnn[nH]2)CCC2(CO2)C1C1(C)OC1CC=C(C)C` (centres unmarked) [Example 67, O-[(1,2,3-Triazol-5-yl)thioacetylcarbamoyl]fumagillol], for which the Inhibition rate (judged after 10 days) is listed as 5/5.

On to `CO[C@@H]1[C@H](OC(=O)N2CCCCC2)CC[C@]2(CO2)[C@H]1[C@@]1(C)O[C@@H]1CC=C(C)C` [Example 25, O-Piperidinocarbonylfumagillol], for which the Inhibition rate (judged after 10 days) was 6/8.

In the case of `CO[C@@H]1[C@H](OC(=O)NC(=O)c2ccccc2)CC[C@]2(CO2)[C@H]1[C@@]1(C)O[C@@H]1CC=C(C)C` [Example 32, O-Benzoylcarbamoylfumagillol], for the setting “judged after 10 days”, the Inhibition rate is 9/12.

`CO[C@@H]1[C@H](OC(=O)CCCCl)CC[C@]2(CO2)[C@H]1[C@@]1(C)O[C@@H]1CC=C(C)C` [Example 49, O-(4-Chlorobutyryl)fumagillol]: the Inhibition rate (judged after 10 days) is given as 4/5.

`CO[C@@H]1[C@H](OC(=O)NC(=O)C(Cl)(Cl)Cl)CC[C@]2(CO2)[C@H]1[C@@]1(C)O[C@@H]1CC=C(C)C` [Example 31, O-Trichloroacetylcarbamoylfumagillol]: the Inhibition rate (judged after 10 days) was 5/6.

`CO[C@@H]1[C@H](OC(=O)NC(C)=O)CC[C@]2(CO2)[C@H]1[C@@]1(C)O[C@@H]1CC=C(C)C` [Example 29, O-Acetylcarbamoylfumagillol]: the Inhibition rate (judged after 10 days) is 7/7.

Take `CO[C@@H]1[C@H](OC(=O)NC(=O)CSc2nnnn2CCN(C)C)CC[C@]2(CO2)[C@H]1[C@@]1(C)O[C@@H]1CC=C(C)C` [Example 52, O-[[1-(2-Dimethylaminoethyl)tetrazol]-5-yl-thioacetylcarbamoyl]fumagillol]: the Inhibition rate (judged after 10 days) was 6/8.

`CO[C@@H]1[C@H](OC(=O)NC(=O)CSc2cccc3cccnc23)CC[C@]2(CO2)[C@H]1[C@@]1(C)O[C@@H]1CC=C(C)C` [Example 62, O-[(8-Quinolyl)thioacetylcarbamoyl]fumagillol]: the Inhibition rate (judged after 10 days) is on record as 7/7.

Turning to `CO[C@@H]1[C@H](OC(=O)CCCC(=O)O)CC[C@]2(CO2)[C@H]1[C@@]1(C)O[C@@H]1CC=C(C)C` [Example 4, Sodium salt of O-(4-carboxybutanoyl)fumagillol], the Inhibition rate (judged after 10 days) is given as 6/7.

Consider `CO[C@@H]1[C@H](OCc2cccc3ccccc23)CC[C@]2(CO2)[C@H]1[C@@]1(C)O[C@@H]1CC=C(C)C` [Example 46, O-(1-Naphthylmethyl)fumagillol], for which, for the setting “judged after 10 days”, the Inhibition rate is listed as 7/10.

For the compound `CO[C@@H]1[C@H](OC(=O)NN)CC[C@]2(CO2)[C@H]1[C@@]1(C)O[C@@H]1CC=C(C)C` [Example 26, O-Carbazoylfumagillol], the Inhibition rate (judged after 10 days) was 6/6.

Regarding `CO[C@@H]1[C@H](OC(=O)COCC(=O)O)CC[C@]2(CO2)[C@H]1[C@@]1(C)O[C@@H]1CC=C(C)C` [Example 5, O-Carboxymethoxyacetylfumagillol], the Inhibition rate (judged after 7 days) is reported as 8/8*.

Turning to `C=C(C)C(=O)NC(=O)O[C@@H]1CC[C@]2(CO2)[C@@H]([C@@]2(C)O[C@@H]2CC=C(C)C)[C@@H]1OC` [Example 33, O-Methacryloylcarbamoylfumagillol], where the note is “judged after 10 days”, the Inhibition rate is listed as 4/6.

For `CO[C@@H]1[C@H](OC(=O)Oc2ccccc2)CC[C@]2(CO2)[C@H]1[C@@]1(C)O[C@@H]1CC=C(C)C` [Example 22, O-Phenoxycarbonylfumagillol], where the note is “judged after 10 days”, the Inhibition rate was 5/8.

With `CO[C@@H]1[C@H](OC(=O)N(CCN(C)C)C(C)=O)CC[C@]2(CO2)[C@H]1[C@@]1(C)O[C@@H]1CC=C(C)C` [Example 57, O-[N-Acetyl-(2-dimethylaminoethylcarbamoyl)]fumagillol], the Inhibition rate (judged after 10 days) is listed as 6/6.

For the compound `CO[C@@H]1[C@H](OS(=O)(=O)c2ccc(C)cc2)CC[C@]2(CO2)[C@H]1[C@@]1(C)O[C@@H]1CC=C(C)C` [Example 20, O-(p-Toluenesulfonyl)fumagillol], under “judged after 10 days”, the Inhibition rate is 3/4.

With `CO[C@@H]1[C@H](OCc2ccc(Br)cc2)CC[C@]2(CO2)[C@H]1[C@@]1(C)O[C@@H]1CC=C(C)C` [Example 18, O-(p-Bromobenzyl)fumagillol], the Inhibition rate (judged after 10 days) was 7/7.

Consider `CO[C@@H]1[C@H](OS(C)(=O)=O)CC[C@]2(CO2)[C@H]1[C@@]1(C)O[C@@H]1CC=C(C)C` [Example 21, O-Methylsulfonylfumagillol], for which the Inhibition rate (judged after 10 days) is on record as 4/4.

On to `CO[C@@H]1[C@H](OC(=O)Nc2ccccc2)CC[C@]2(CO2)[C@H]1[C@@]1(C)O[C@@H]1CC=C(C)C` [Example 11, O-Phenylcarbamoylfumagillol], for which the Inhibition rate (judged after 7 days) is listed as 9/9*.

Turning to `CO[C@@H]1[C@H](OC(=O)NCC[N+](C)(C)C)CC[C@]2(CO2)[C@H]1[C@@]1(C)O[C@@H]1CC=C(C)C` [Example 56, O-[2-(N,N,N-Trimethylammonio)ethylcarbamoyl]fumagillol iodide], the Inhibition rate (judged after 10 days) is on record as 4/7.

Take `COC1C(OC(=O)NC(=O)NC(=O)c2ccccc2)CCC2(CO2)C1C1(C)OC1CC=C(C)C` (centres unmarked) [Example 75, O-(N'-Benzoylallophanoyl)fumagillol]: the Inhibition rate (judged after 10 days) is reported as 8/8.

`CO[C@@H]1[C@H](OC(=O)Nc2ccc(F)cc2F)CC[C@]2(CO2)[C@H]1[C@@]1(C)O[C@@H]1CC=C(C)C` [Example 37, O-(2,4-Difluorophenylcarbamoyl)fumagillol]: the Inhibition rate (judged after 10 days) is recorded as 11/11.

With `CO[C@@H]1[C@H](OC)CC[C@]2(CO2)[C@H]1[C@@]1(C)O[C@@H]1CC=C(C)C` [Example 14, O-Methylfumagillol], the Inhibition rate (judged after 10 days) is given as 4/8.

For `COC1C(OC(=O)NC(=O)CSc2cc[n+](C)cc2)CCC2(CO2)C1C1(C)OC1CC=C(C)C` (centres unmarked) [Example 69, O-[(N-Methylpyridin-4-ylium)thioacetylcarbamoyl]fumagillol iodide], the Inhibition rate (judged after 10 days) was 6/6.

`CO[C@@H]1[C@H](OC(=O)NC(=O)CSc2nc3ccccc3[nH]2)CC[C@]2(CO2)[C@H]1[C@@]1(C)O[C@@H]1CC=C(C)C` [Example 61, O-[(2-Benzoimidazolyl)thioacetylcarbamoyl]fumagillol]: the Inhibition rate (judged after 10 days) is listed as 7/7.

As to `CCOC(=O)NC(=O)OC1CCC2(CO2)C(C2(C)OC2CC=C(C)C)C1OC` (centres unmarked) [Example 70, O-[N-(Ethoxycarbonyl)carbamoyl]fumagillol], the Inhibition rate (judged after 10 days) is listed as 5/5.

As to `CCN1CCN(C(=O)O[C@@H]2CC[C@]3(CO3)[C@@H]([C@@]3(C)O[C@@H]3CC=C(C)C)[C@@H]2OC)CC1` [Example 39, O-[1-(4-Ethylpiperazinyl)carbonyl]fumagillol], the Inhibition rate (judged after 10 days) was 8/8.

Turning to `CO[C@@H]1[C@H](OC(=O)N2CCOCC2)CC[C@]2(CO2)[C@H]1[C@@]1(C)O[C@@H]1CC=C(C)C` [Example 24, O-Morpholinocarbonylfumagillol], under “judged after 10 days”, the Inhibition rate is given as 5/12.

For the compound `CO[C@@H]1[C@H](OC(=O)NC(=O)CSc2cccc[n+]2[O-])CC[C@]2(CO2)[C@H]1[C@@]1(C)O[C@@H]1CC=C(C)C` [Example 43, O-[(Pyridine-N-oxide-2-yl)thioacetylcarbamoyl]fumagillol], under “judged after 10 days”, the Inhibition rate is listed as 7/7.

Regarding `CO[C@@H]1[C@H](OC(=O)NCCN(C)C)CC[C@]2(CO2)[C@H]1[C@@]1(C)O[C@@H]1CC=C(C)C` [Example 28, O-(2-Dimethylaminoethylcarbamoyl)fumagillol], the Inhibition rate (judged after 10 days) is on record as 11/11.

Turning to `CO[C@@H]1[C@H](OC(=O)NC(=O)C(Cl)Cl)CC[C@]2(CO2)[C@H]1[C@@]1(C)O[C@@H]1CC=C(C)C` [Example 30, O-Dichloroacetylcarbamoylfumagillol], the Inhibition rate (judged after 10 days) was 4/8.

For `CO[C@@H]1[C@H](OC(=O)CCC(=O)O)CC[C@]2(CO2)[C@H]1[C@@]1(C)O[C@@H]1CC=C(C)C` [Example 2, Sodium salt of O-(3-carboxypropionyl)fumagillol], the Inhibition rate (judged after 10 days) is listed as 6/6.

As for `CO[C@@H]1[C@H](OC(=O)NCCCl)CC[C@]2(CO2)[C@H]1[C@@]1(C)O[C@@H]1CC=C(C)C` [Example 34, O-(2-Chloroethylcarbamoyl)fumagillol], under “judged after 10 days”, the Inhibition rate was 4/4.

Take `CO[C@@H]1[C@H](OC(=O)NC(=O)CSc2nc3ccccc3o2)CC[C@]2(CO2)[C@H]1[C@@]1(C)O[C@@H]1CC=C(C)C` [Example 60, O-[(2-Benzoxazolyl)thioacetylcarbamoyl]fumagillol]: the Inhibition rate (judged after 10 days) is given as 4/6.

As to `CO[C@@H]1[C@H](OC(=O)c2ccccc2C(=O)O)CC[C@]2(CO2)[C@H]1[C@@]1(C)O[C@@H]1CC=C(C)C` [Example 6, O-(2-Carboxybenzoyl)fumagillol], where the note is “judged after 10 days”, the Inhibition rate is given as 6/7.

For the origin of these results see patent EP0357061B1, “Angiogenesis inhibitory agent” (priority 1988, dated 1990).
